Source: patent publication US20220184222A1, “BICYCLE TOXIN CONJUGATES AND USES THEREOF” (BicycleTx Limited, priority 2019, published 2022)
Starred links: 1 amine or outer side, 2 acyl side, 3 side chain; linkers in the order of their positions; H or OH if unused. Non-standard residues stand in square brackets, D forms with d. Residues, ends and D or L forms follow the SMILES beside them. *: point of attachment. Dolaproine = CO[C@@H]([C@@H]1CCCN1)[C@@H](C)C(=O)O; Dil = CC[C@H](C)[C@H](NC)[C@@H](CC(=O)O)OC; PABC = O=C(OCc1ccc(N[*:1])cc1)[*:2]; X1 = O=C(CCCC(=O)*)ON1C(=O)CCC1=O; X2 = C[C@@H](N*)[C@@H](O)c1ccccc1; Cit = NC(=O)NCCC[C@H](N)C(=O)O; NMeV = CN[C@H](C(=O)O)C(C)C

Experiments:
[1] = test system: CTG-2011; assay: Champions TumorGraft NSCLC PDX efficacy, model CTG-2011; type: in vivo, Mus musculus
Procedure: (§1) Mice were implanted subcutaneously into the left flank with tumor fragments from one of the various models. After tumors grew to an average of 150-300 mm^3, mice were treated by IV administration Q7Dx4 (n=2) with vehicle or 3 mg/kg of BT5528. Effects on tumor growth were evaluated by measuring percent tumor growth inhibition (% TGI), and the number of complete responders (CR), partial responders (PR), and tumor-free survivors (TFS). Tolerability was assessed by body weight loss, lethality, and clinical signs of adverse treatment-related side effects. Tumor volumes and body weights were measured twice a week.
(§2) Dosing solutions of BT5528 […] were pre-formulated. These dosing solutions were stored at −80° C. in the dark. On each day of dosing, a frozen aliquot of each test agent was thawed, stored at 2-8° C. and used for dosing.
(§3) The animals used in this study are described below: • Species: Mus musculus • Strain: Athymic Nude-Foxn1^nu (immune-compromised) • Source: Envigo (Indianapolis, Ind., USA) • Number of animals per group: 2 • Age and sex: At least 6-8 weeks of age at start of dosing, female • Weight: At least 18 grams at start of dosing • Acclimation period: 3 days
(§4) Stock mice were implanted with tumor cells from Champions TumorGraft® models CTG-0160, CTG-0170, CTG-0178, CTG-0192, CTG-0363, CTG-0808, CTG-0838, CTG-0848, CTG-1212, CTG-1502, CTG-1535, CTG-2011, CTG-2393, CTG-2539 or CTG-2540. After the tumors reached 1000-1500 mm^3, they were harvested and the tumor fragments (approximately 5×5×5 mm^3) were implanted SC in the left flank of the female study mice. Each animal was implanted with a specific passage lot and documented. Tumor growth was monitored twice a week using digital calipers and the tumor volume (TV) was calculated using the formula (0.52×[length×width^2]). When the TV reached an average volume of 150-300 mm^3, animals were matched by tumor size and assigned into Vehicle Control and treatment groups (n=2/group) and dosing was initiated on Day 0. After the initiation of dosing on Day 0, animals were weighed twice per week using a digital scale and TV was measured twice per week and also on the final day of study. The study was completed when the mean tumor volume of Vehicle Control reached 1500 mm^3 or up to Day 60, whichever occurred first.
(§5) Beginning on Day 0, animals were observed daily and weighed twice weekly using a digital scale; data including individual and mean gram weights, mean percent weight change versus Day 0 (% vD0) were recorded for each group and % vD0 plotted at study completion. […] Treatment resulting in a mean % vD0>20% and/or >10% mortality was considered above the maximum tolerated dose. Maximum mean % vD0 (weight nadir) for each treatment group was reported at study completion.
(§6) Inhibition of tumor growth was determined by calculating the percent TGI (100%×[1−(final MTV−initial MTV of a treated group)/(final MTV−initial MTV of the control group)]). Treatment started on Day 0.
(§7) Additional endpoints used to evaluate efficacy were: the number of complete responders (CR), partial responders (PR), and tumor-free survivors (TFS). PRs were considered exclusive of CRs, as were TFS.
(§8) Statistical analyses of anti-tumor efficacy were performed using one-way ANOVA followed by Dunnett's multiple comparisons test (GraphPad Prism version 8.2.0). Significant p-values=<0.05.
Animals were dosed according to the schedule on Table 7-1. The Vehicle Control reached endpoint on Day 18 and the study was terminated on Day 28.

[2] = test system: CTG-0160; assay: Champions TumorGraft NSCLC PDX efficacy, model CTG-0160; type: in vivo, Mus musculus
Procedure: as §1, §2, §3, §4, §5, §6, §7, §8
Animals were dosed according to the schedule on Table 7-1. The Vehicle Control group reached endpoint of average tumor volume >1500 mm^3 on Day 21 and was removed from the study. The study was terminated on Day 28. Therefore, the tumor volumes on Day 21 were used for analysis of anti-tumor activity.

[3] = test system: Panc033; assay: PDAC PDX Panc033 xenograft efficacy (Example 5); type: in vivo, NSG mice; settings: 3 mg/kg intravenously weekly, 4-week treatment period
Procedure: BT5528 and Vehicle were prepared as described in the examples above, and tested in treatment of Pancreatic Ductal Adenocarcinoma (PDAC) in PDX models. PDX models effectively capture patient responses to oncology therapy in a heterogeneous cohort of patients with solid tumors with 80-100% correlation between the PDX and patient response (Izumchenko et al. 2017)
Pancreatic ductal adenocarcinoma patient derived xenograft tumors (PDAC PDX; Panc033 and Panc163) were implanted subcutaneously from source tumors into the flank of NSG mice. Tumor bearing animals were randomized to receive intravenously a weekly dosing of vehicle or 3 mg/kg BT5528. Tumor sizes were monitored by caliper measurements.

[4] = CTG-2011, 3 mg/kg IV Q7Dx4, Day 0-28
[5] = CTG-0160, 3 mg/kg IV Q7Dx4, Day 0-28

For `CC[C@H](C)[C@@H]([C@@H](CC(=O)N1CCC[C@H]1[C@H](OC)[C@@H](C)C(=O)N[C@H](C)[C@@H](O)c1ccccc1)OC)N(C)C(=O)[C@@H](NC(=O)[C@H](C(C)C)N(C)C(=O)OCc1ccc(NC(=O)[C@H](CCCNC(N)=O)NC(=O)[C@@H](NC(=O)CCCC(=O)ON2C(=O)CCC2=O)C(C)C)cc1)C(C)C` [BT5528] (X1-V[Cit][PABC][NMeV]V[Dil][Dolaproine]-X2), the “MTV (mean tumor volume)” value ([1]; 3 mg/kg IV Q7Dx4, Day 18) was 826±48 mm^3, the TGI ([1]; 3 mg/kg IV Q7Dx4, Day 18) was 57% and the “# CR (complete responders)” value [1, 4] was 0 /0/0. For the same molecule, the “# PR (partial responders)” value [1, 4] was 0 /0/0, the “# TFS (tumor-free survivors)” value [1, 4] was 0 /0/0 and the “% TGI” value ([1]; CTG-2011, 3 mg/kg IV Q7Dx4, Day 18) was 57%. The “Day 18 Tumor Volume Mean TV ± SEM” value ([1]; CTG-2011, BT5528 3 mg/kg IV Q7Dx4, Day 18, n=2) was 826 ± 48 mm^3, the “MTV (mean tumor volume)” value ([2]; 3 mg/kg IV Q7Dx4, Day 21) was 400±187 mm^3 and the TGI ([2]; 3 mg/kg IV Q7Dx4, Day 21) was 87%. The “# CR (complete responders)” value [2, 5] was 0/0/0, the “# PR (partial responders)” value [2, 5] was 0/0/0 and the “# TFS (tumor-free survivors)” value [2, 5] was 0/0/0. For the same molecule, the “% TGI” value ([2]; CTG-0160, 3 mg/kg IV Q7Dx4, Day 21) was 87%, the “Day 21 Tumor Volume Mean TV ± SEM” value ([2]; CTG-0160, BT5528 3 mg/kg IV Q7Dx4, Day 21, n=2) was 400 ± 187 mm^3 and the “anti-tumor activity (tumor size by caliper)” value [3] was “significant anti-tumor activity from reduced tumor growth rate to decreasing tumor volumes”.
